Test results as given in PubChem BioAssay (NCI).
Where “and” joins values, the source holds several entries; their conditions need not be identical. Equal entries are not always repeated.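 Dose response: 5 concentrations. Exposure: 48 h. Format: 96-well plates. Endpoint: linear interpolation; highest concentration if not reached. GI50: concentration for 50% inhibition of growth. TGI denotes the concentration required for complete inhibition of growth.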

Assays:
Assay in all cases: growth of human tumour cells (NCI), 48 h
DU-145 prostate = test system: DU-145 prostate
UO-31 renal = test system: UO-31 renal
PC-3 prostate = test system: PC-3 prostate
SF-295 CNS = test system: SF-295 CNS
MDA-N = test system: MDA-N
MDA-MB-231 breast = test system: MDA-MB-231 breast
HS 578T breast = test system: HS 578T breast
T-47D breast = test system: T-47D breast
HOP-62 NSCLC = test system: HOP-62 NSCLC
SK-MEL-2 melanoma = test system: SK-MEL-2 melanoma
HCT-15 colon = test system: HCT-15 colon

Compound	TGI (DU-145 prostate) [µM]	TGI (UO-31 renal) [µM]	TGI (PC-3 prostate) [µM]	TGI (SF-295 CNS) [µM]	TGI (MDA-N) [µM]	TGI (MDA-MB-231 breast) [µM]	TGI (HS 578T breast) [µM]	TGI (T-47D breast) [µM]	TGI (HOP-62 NSCLC) [µM]	TGI (SK-MEL-2 melanoma) [µM]	TGI (HCT-15 colon) [µM]	GI50 (HS 578T breast)
O=C(NNC1=NCCN1)c1ccco1	> 100	> 100	> 100	> 100	> 100	> 100	> 100	> 100	> 100	> 100	> 100	–
COC(=O)c1ccc2c(O)c(O)ccc2c1	30.1	36.4	12.5	17.2	3.29	15.4	> 69.2	42.6	32.9	13.8	27.8	–
COC(=O)C1CCC(=O)N1CN(C(C)=O)c1ccccc1 (stereo not drawn)	> 100	> 100	> 100	> 100	> 100	> 100	> 100	> 100	> 100	> 100	> 100	–
O=[N+]([O-])/C=C1\COCc2cc3c(cc21)OCO3	37.4	34.7	25.6	> 100	40.4	29.8	80.7	46	> 100	–	36.2	–
O=C(c1ccccc1)c1ccc(COc2ccc(C(c3c(O)c4ccccc4oc3=O)c3c(O)c4ccccc4oc3=O)cc2)cc1	> 100	77.3	34.9	44.1	62	> 100	> 100	57.6	47.4	34.9	> 100	–
COc1nc(N)c(NC2OC(CO)C(O)C2O)c(=O)[nH]1 (stereo not drawn)	> 100	> 100	> 100	> 100	> 100	> 100	> 100	> 100	> 100	> 100	> 100	–
CCC1(CC)CC(=NNS(=O)(=O)c2ccc(C)cc2)C1	> 100	> 100	> 100	> 100	> 100	> 100	> 100	> 100	–	> 100	> 100	–
CCCN(C(=O)c1c(Cl)nnc(Cl)c1C(=O)c1cc(Cl)nnc1Cl)c1cc(Cl)nnc1Cl	27.6	33.2	22.2	42.3	30	34.3	14.9	23	48.8	33.3	18.5	–
COC(=O)C1C(OC(=O)c2ccccc2)CC2CCC1N2C(N)=O (stereo not drawn)	> 100	> 100	> 100	> 100	> 100	> 100	> 100	> 100	> 100	> 100	> 100	–
CN(/N=C(\C(=O)O)c1ccccc1)C1=NCCCN1	> 100	> 100	> 100	> 100	> 100	> 100	> 100	> 100	> 100	> 100	> 100	–
O=C(CN1CCNCCN(CC(=O)N2CCCCC2)CCNCC1)N1CCCCC1	> 100	> 100	> 100	> 100	> 100	> 100	> 100	> 100	> 100	> 100	> 100	–
CCC(NC(C)c1ccccc1)C(O)c1ccc(OCc2ccccc2)c(OCc2ccccc2)c1 (stereo not drawn)	32.1	23.7	27.4	35.4	30.3	21.2	46.9	40.1	32.2	29.1	29.9	–
CC1C(c2ccccc2)OP(=O)(OC(C#N)c2ccccc2)N1C (stereo not drawn)	> 100	> 100	> 100	> 100	> 100	> 100	> 100	> 100	> 100	> 100	> 100	–
CC1(C)CS(=O)(=O)CC(C)(C)C(=N/N)/C1=N\N	> 100	–	> 100	> 100	> 100	–	> 100	> 100	> 100	> 100	> 100	–
CSc1nc(N)c(NC2OC(CO)C(O)C2O)c(=O)[nH]1 (stereo not drawn)	> 100	> 100	> 100	> 100	> 100	> 100	> 100	> 100	> 100	> 100	> 100	–
Fc1ccc2nc3n(c2c1)C(c1c(F)cccc1F)SC3 (stereo not drawn)	> 100	> 100	> 100	> 100	85.3	> 100	> 100	> 100	> 100	> 100	> 100	–
COc1ccc(NC2Oc3cc4c(cc3C(c3cccc(OC)c3OC)C2C)OCO4)cc1 (stereo not drawn)	> 100	> 100	51.3	32.3	> 100	> 100	61.5	> 100	> 100	70.2	> 100	–
COc1cc(OC)c(OC)cc1/C=N/N=C(\N)NO	> 100	> 100	> 100	> 100	> 100	> 100	> 100	> 100	> 100	> 100	> 100	–
NNC(=O)c1ccc(-n2nnc(C(=O)NN)c2C(=O)NN)cc1	> 100	> 100	> 100	> 100	> 100	> 100	–	–	> 100	> 100	> 100	–
COC(=O)C1CC2(CCC1=O)Cc1ccccc1C2=O (stereo not drawn)	> 100	> 100	> 100	> 100	> 100	> 100	> 100	> 100	> 100	> 100	> 100	–
CN(C)CCNC(=O)c1cccc2c(NCC(=O)O)c3ccccc3nc12	> 100	> 100	55.2	29.8	> 100	69.5	50.7	–	82.5	37.4	> 100	–

Compound	TGI (DU-145 prostate) [µM]	TGI (UO-31 renal) [µM]	TGI (PC-3 prostate) [µM]	TGI (SF-295 CNS) [µM]	TGI (MDA-N) [µM]	TGI (MDA-MB-231 breast) [µM]	TGI (HS 578T breast) [µM]	TGI (T-47D breast) [µM]	TGI (HOP-62 NSCLC) [µM]	TGI (SK-MEL-2 melanoma) [µM]	TGI (HCT-15 colon) [µM]	GI50 (HS 578T breast)
COc1cc2c(c(OC)c1OC)C(=O)[C@H](O)[C@H]2NC(N)=O	> 100	> 100	> 100	> 100	> 100	> 100	> 100	–	> 100	–	> 100	–
COc1ccc(N2C(=O)C3c4[nH]c5ccc(C)cc5c4C4CCC(C)CC4C3C2=O)cc1 (stereo not drawn)	> 100	> 100	> 100	> 100	> 100	> 100	37.2	–	–	> 100	> 100	–
COc1ccc(NC(=O)CC(=O)N2N=C(C)C(N=Nc3ccc(S(=O)(=O)c4ccc(N=NC5C(=O)N(C(=O)CC(=O)Nc6ccc(OC)cc6)N=C5C)cc4)cc3)C2=O)cc1 (stereo not drawn)	> 100	> 100	> 100	> 100	> 100	> 100	> 100	> 100	> 100	> 100	> 100	–
CCCC(=O)NC1=C(NCC)C(=O)c2ccccc2C1=O	> 100	–	> 100	> 100	63.2	> 100	> 100	> 100	> 100	–	> 100	–
COCn1c2ccc(OC(C)=O)cc2c2c(=O)oc(N(C)C)nc21	> 100	–	> 100	> 100	> 100	> 100	> 100	> 100	> 100	> 100	> 100	–
[N-]=[N+]=Nc1c(-c2ccccc2)c(Cl)nc2ccccc12	–	> 100	> 100	> 100	> 100	> 100	> 100	> 100	> 100	> 100	> 100	–
C1=NCCNCCN=Cc2ccc(cc2)OCc2cccc(n2)COc2ccc1cc2	> 100	> 100	> 100	> 100	> 100	> 100	> 100	> 100	52.9	> 100	> 100	–
CC1CC[C@@H](C(C)C)[C@H](Oc2nnc(C3OC(CO)C(O)C3O)o2)C1 (stereo partly drawn)	> 100	> 100	> 100	> 100	> 100	> 100	–	> 100	> 100	> 100	> 100	–
C=Cc1c(C)c(OC)cc2c1Oc1ccc(OC)c(C)c1CC2	> 100	> 100	> 100	> 100	> 100	> 100	> 100	> 100	> 100	> 100	> 100	–
Cc1c(/C=N/NC(=S)Nc2ccccc2Cl)c(=O)n(-c2ccccc2)n1C	> 100	> 100	> 100	89.4	> 100	35.7	85.3	> 100	78.2	> 100	> 100	–
COC(=O)[C@@H]1CN(C(=O)CCc2ccccc2)C(=O)N1C(=O)OCc1ccccc1	> 100	> 100	–	> 100	> 100	> 100	> 100	> 100	> 100	> 100	> 100	–
N#CC(C#N)=Cc1ccc2c(c1)OC(Cl)O2 (stereo not drawn)	63	30.7	47.8	37.4	35.2	–	–	> 100	–	37.6	46.4	–
C#CCOCC12C=CC(O1)C1C(=O)N(C)C(=O)C12 (stereo not drawn)	> 100	> 100	> 100	> 100	> 100	> 100	> 100	> 100	> 100	–	> 100	> 100 µM and 20 µM
Cc1ccc(/C=N/Nc2cnccn2)s1	–	> 100	> 100	> 100	> 100	> 100	> 100	> 100	> 100	> 100	> 100	–
O=C1C2CC=CCC2C(=O)N1n1c(-c2ccccc2)n[nH]c1=O (stereo not drawn)	–	> 100	> 100	> 100	> 100	> 100	> 100	> 100	> 100	> 100	> 100	–
CCOC(=O)c1c(N2CCCC2)nsc1Nc1ccccc1	> 100	> 100	> 100	> 100	> 100	> 100	> 100	> 100	–	> 100	> 100	–
COc1ccc(NS(=O)CCCc2ccccc2)cc1 (stereo not drawn)	> 100	> 100	–	> 100	> 100	> 100	> 100	71.9	> 100	> 100	> 100	–
CC1=NN(c2ccccc2)C(=O)/C1=C/c1ccc(O)cc1	> 100	–	> 100	> 100	> 100	> 100	> 100	> 100	–	> 100	> 100	–
CN(C)c1ccc(N=Nc2ccc3nc[nH]c3c2)cc1	77.3	65.9	> 100	57.3	> 100	39.4	74.2	> 100	–	> 100	70.4	–
CCOC(=O)/C(C(=S)Nc1ccccc1)=C(/N)N1CCCC1	> 100	> 100	> 100	> 100	84.9	> 100	> 100	–	> 100	> 100	> 100	–
CCOC(=O)c1sc2c(c1OC(=O)c1cccs1)c(=O)n(-c1ccccc1)c(=S)n2-c1ccccc1	94.1	0.925	31.8	> 100	> 100	41.8	83	> 100	50.3	–	43.4	–
